Measured values as given in US8921267B2, “Safening 6-(trisubstituted phenyl)-4-amino-2-pyridinecarboxylate herbicide injury on cereal crops” (Dow AgroSciences LLC, priority 2008, dated 2014).

Experiments:
[1] = test system: wheat (Triticum aestivum L; TRZAS); assay: Postemergence herbicidal safening, greenhouse, visual injury: wheat; type: in vivo
Outline: (§1)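 Percent visual injury relative to solvent-blank controls, rated 20-22 d after treatment on a 0 (none) to 100 (complete kill) scale. Expected mixture response came from Colby's equation, Expected=A+B−(A×B/100). Sprays contained 1.5% v/v crop oil concentrate at 187 L/ha.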

[2] = test system: barley (Hordeum vulgare L; HORVS); assay: Postemergence herbicidal safening, greenhouse, visual injury: barley; type: in vivo; parameters: key to HORVS Ob (Observed values): % visual injury: 0 = no injury, 100 = complete kill
Outline: as §1

[3] = test system: cleavers (Galium aparine L; GALAP); assay: Postemergence herbicidal activity, greenhouse, visual injury: cleavers; type: in vivo; parameters: key: visual injury, 0–100%: 0 = no injury, 100 = complete kill
Outline: as §1

[4] = test system: kochia (Kochia scoparia L; KCHSC); assay: Postemergence herbicidal activity, greenhouse, visual injury: kochia; type: in vivo; parameters: key: % visual injury: 0 = no injury, 100 = complete kill
Procedure: (§2) Evaluation of Postemergence Herbicidal Safening in Cereal Crops
(§3) Seeds of the desired test plant species were planted in Sun Gro MetroMix® 306 planting mixture, which typically has a pH of 6.0 to 6.8 and an organic matter content of about 30 percent, in plastic pots with a surface area of 103.2 square centimeters (cm^2). When required to ensure good germination and healthy plants, a fungicide treatment and/or other chemical or physical treatment was applied. The plants were grown for 7-36 days (d) in a greenhouse with an approximate 14-hour (h) photoperiod which was maintained at about 18° C. during the day and 17° C. during the night. Nutrients and water were added on a regular basis and supplemental lighting was provided with overhead metal halide 1000-Watt lamps as necessary. The plants were employed for testing when they reached the second or third true leaf stage.
(§4) Weighed amounts of esters (methyl) or salts (TEA [triethylammonium], K [potassium]) of 4-amino-3-chloro-6-(4-chloro-2-fluoro-3-methoxyphenyl)pyridine-2-carboxylic acid (Compound 1) were dissolved in a volume of 97:3 volume/volume (v/v) acetone/dimethylsulfoxide (DMSO) to obtain stock solutions. […] The concentrated stock solutions were diluted with an aqueous mixture of 1.5% v/v of Agri-dex crop oil concentrate to provide the appropriate application rates. Compound requirements are based upon a 12 mL application volume at a rate of 187 liters per hectare (L/ha). Stocks solutions of the safeners were prepared following the same procedure. Spray solutions of the safeners and experimental compound mixtures were prepared by adding the stock solutions to the appropriate amount of dilution solution to form a 12 mL spray solution with active ingredients in two-way combinations. Formulated compounds were applied to the plant material with an overhead Mandel track sprayer equipped with 8002E nozzles calibrated to deliver 187 L/ha over an application area of 0.503 square meters (m^2) at a spray height of 18 inches (43 centimeters (cm)) above average plant canopy. Control plants were sprayed in the same manner with the solvent blank.
(§5) The treated plants and control plants were placed in a greenhouse as described above and watered by sub-irrigation to prevent wash-off of the test compounds. After 20-22 d, the condition of the test plants as compared with that of the control plants was determined visually and scored on a scale of 0 to 100 percent where 0 corresponds to no injury and 100 corresponds to complete kill.
(§6) Colby's equation was used to determine the herbicidal effects expected from the mixtures (Colby, S. R. Calculation of the synergistic and antagonistic response of herbicide combinations. Weeds 1967, 15, 20-22.).
(§7) The following equation was used to calculate the expected activity of mixtures containing two active ingredients, A and B: Expected=A+B−(A×B/100)
(§8) A=observed efficacy of active ingredient A at the same concentration as used in the mixture.
(§9) B=observed efficacy of active ingredient B at the same concentration as used in the mixture.

[5] = test system: purple deadnettle (Lamium purpureum L; LAMPU); assay: Postemergence herbicidal activity, greenhouse, visual injury: purple deadnettle; type: in vivo
Outline: (§10)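 Weeds were grown in MetroMix 306 (pH 6.0–6.8) in a greenhouse at about 18/17 °C day/night with a 14 h photoperiod and sprayed at the second or third true leaf stage. Compound 1 ester or salt plus safener in 1.5% v/v Agri-dex was applied at 187 L/ha. Injury was scored visually at 20-22 d (0–100%), with Colby expected values.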

[6] = test system: scented mayweed (Matricaria chamomila L; MATCH); assay: Postemergence herbicidal activity, greenhouse, visual injury: scented mayweed; type: in vivo; parameters: key: % visual injury: 0 = no injury, 100 = complete kill
Procedure: as §2, §3, §4, §5, §6, §7, §8, §9

[7] = test system: corn poppy (Papaver rhoeas L; PAPRH); assay: Postemergence herbicidal activity, greenhouse, visual injury: corn poppy; type: in vivo
Outline: as §10

[8] = test system: wild buckwheat (Polygonum convolvulus L; POLCO); assay: Postemergence herbicidal activity, greenhouse, visual injury: wild buckwheat; type: in vivo
Outline: as §1

[9] = test system: Russian thistle (Salsola iberica L; SASKR); assay: Postemergence herbicidal activity, greenhouse, visual injury: Russian thistle; type: in vivo; parameters: key: visual injury, 0–100%: 0 = no injury, 100 = complete kill
Outline: as §1

[10] = test system: chickweed (Stellaria media L; STEME); assay: Postemergence herbicidal activity, greenhouse, visual injury: chickweed; type: in vivo; parameters: key: visual injury, 0–100%: 0 = no injury, 100 = complete kill
Outline: as §1

[11] = test system: bird's-eye speedwell (Veronica persica L; VERPE); assay: Postemergence herbicidal activity, greenhouse, visual injury: bird's-eye speedwell; type: in vivo; parameters: key: visual injury, 0–100%: 0 = no injury, 100 = complete kill
Outline: as §1

[12] = test system: wild pansy (Viola tricolor L; VIOTR); assay: Postemergence herbicidal activity, greenhouse, visual injury: wild pansy; type: in vivo; parameters: key: visual injury, 0–100%: 0 = no injury, 100 = complete kill
Outline: as §10

[13] = test system: durum wheat (Triticum durum L; TRZDU); assay: Postemergence herbicidal safening, greenhouse, visual injury: durum wheat; type: in vivo
Procedure: as §2, §3, §4, §5, §6, §7, §8, §9

[14] = test system: wheat (Triticum aestivum L; TRZAW); assay: Postemergence herbicidal safening, greenhouse, visual injury: wheat (TRZAW); type: in vivo
Procedure: as §2, §3, §4, §5, §6, §7, §8, §9

barley (HORVW) = assay: Postemergence herbicidal safening, greenhouse, visual injury: barley (HORVW)

C=CCN(CC=C)C(=O)C(Cl)Cl [Dichlormid, N,N-diallyl-2,2-dichloroacetamide, reference compound]
0%: TRZAS Ob ([1]; applied alone at 17.5 g/ha) | TRZAS Ob ([1]; applied alone at 35 g/ha) | TRZAS Ob ([1]; applied alone at 70 g/ha) | TRZAS Ob ([1]; applied alone at 140 g/ha) | HORVS Ob ([2]; applied alone at 17.5 g/ha) | HORVS Ob ([2]; applied alone at 35 g/ha) | HORVS Ob ([2]; applied alone at 70 g/ha) | HORVS Ob ([2]; applied alone at 140 g/ha) | GALAP Ob ([3]; applied alone at 17.5 g/ha) | GALAP Ob ([3]; applied alone at 35 g/ha) | GALAP Ob ([3]; applied alone at 70 g/ha) | GALAP Ob ([3]; applied alone at 140 g/ha) | KCHSC Ob ([4]; applied alone at 17.5 g/ha) | KCHSC Ob ([4]; applied alone at 35 g/ha) | KCHSC Ob ([4]; applied alone at 70 g/ha) | KCHSC Ob ([4]; applied alone at 140 g/ha) | LAMPU Ob ([5]; applied alone at 17.5 g/ha) | LAMPU Ob ([5]; applied alone at 35 g/ha) | LAMPU Ob ([5]; applied alone at 70 g/ha) | LAMPU Ob ([5]; applied alone at 140 g/ha) | MATCH Ob ([6]; applied alone at 17.5 g/ha) | MATCH Ob ([6]; applied alone at 35 g/ha) | MATCH Ob ([6]; applied alone at 70 g/ha) | MATCH Ob ([6]; applied alone at 140 g/ha) | PAPRH Ob ([7]; applied alone at 17.5 g/ha) | PAPRH Ob ([7]; applied alone at 35 g/ha) | PAPRH Ob ([7]; applied alone at 70 g/ha) | PAPRH Ob ([7]; applied alone at 140 g/ha) | POLCO Ob ([8]; applied alone at 17.5 g/ha) | POLCO Ob ([8]; applied alone at 35 g/ha) | POLCO Ob ([8]; applied alone at 70 g/ha) | POLCO Ob ([8]; applied alone at 140 g/ha) | SASKR Ob ([9]; applied alone at 17.5 g/ha) | SASKR Ob ([9]; applied alone at 35 g/ha) | SASKR Ob ([9]; applied alone at 70 g/ha) | SASKR Ob ([9]; applied alone at 140 g/ha) | STEME Ob ([10]; applied alone at 17.5 g/ha) | STEME Ob ([10]; applied alone at 35 g/ha) | STEME Ob ([10]; applied alone at 70 g/ha) | STEME Ob ([10]; applied alone at 140 g/ha) | VERPE Ob ([11]; applied alone at 17.5 g/ha) | VERPE Ob ([11]; applied alone at 35 g/ha) | VERPE Ob ([11]; applied alone at 70 g/ha) | VERPE Ob ([11]; applied alone at 140 g/ha) | VIOTR Ob ([12]; applied alone at 17.5 g/ha) | VIOTR Ob ([12]; applied alone at 35 g/ha) | VIOTR Ob ([12]; applied alone at 70 g/ha) | VIOTR Ob ([12]; applied alone at 140 g/ha) | TRZDU Ob (Observed values) ([13]; safener 4.4 g/ha alone) | TRZDU Ob (Observed values) ([13]; safener 8.8 g/ha alone) | TRZDU Ob (Observed values) ([13]; safener 17.5 g/ha alone) | TRZDU Ob (Observed values) ([13]; safener 35 g/ha alone) | TRZAW Ob (Observed values) ([14]; safener 4.4 g/ha alone) | TRZAW Ob (Observed values) ([14]; safener 8.8 g/ha alone) | TRZAW Ob (Observed values) ([14]; safener 17.5 g/ha alone) | TRZAW Ob (Observed values) ([14]; safener 35 g/ha alone) | HORVW Ob (Observed values) (barley (HORVW); safener 4.4 g/ha alone) | HORVW Ob (Observed values) (barley (HORVW); safener 8.8 g/ha alone) | HORVW Ob (Observed values) (barley (HORVW); safener 17.5 g/ha alone) | HORVW Ob (Observed values) (barley (HORVW); safener 35 g/ha alone)
0: HORVS Ob (Observed values) ([2]; safener 4.4 g/ha alone) | HORVS Ob (Observed values) ([2]; safener 8.8 g/ha alone) | HORVS Ob (Observed values) ([2]; safener 17.5 g/ha alone) | HORVS Ob (Observed values) ([2]; safener 35 g/ha alone) | LAMPU Ob (Observed values) ([5]; safener 4.4 g/ha alone) | LAMPU Ob (Observed values) ([5]; safener 8.8 g/ha alone) | LAMPU Ob (Observed values) ([5]; safener 17.5 g/ha alone) | LAMPU Ob (Observed values) ([5]; safener 35 g/ha alone) | PAPRH Ob (Observed values) ([7]; safener 4.4 g/ha alone) | PAPRH Ob (Observed values) ([7]; safener 8.8 g/ha alone) | PAPRH Ob (Observed values) ([7]; safener 17.5 g/ha alone) | PAPRH Ob (Observed values) ([7]; safener 35 g/ha alone)
